Reference: patent US20250230141A1, “Substituted Fused Bicyclic Compounds and Related Methods of Treatment” (Alkermes, Inc., priority 2022, published 2025)

Each compound was assayed against T1, human orexin-2 receptor (OX2R) (Homo sapiens, UniProt O43614) (assay: Human OX2R IP1 assay). Settings: T-Rex CHO cells stably overexpressing human OX2R; IP1 accumulation, 1 hr at 37 degrees C; mean EC50.
T1 construct: expressed in transfected cells
T1 sequence (O43614 1-444): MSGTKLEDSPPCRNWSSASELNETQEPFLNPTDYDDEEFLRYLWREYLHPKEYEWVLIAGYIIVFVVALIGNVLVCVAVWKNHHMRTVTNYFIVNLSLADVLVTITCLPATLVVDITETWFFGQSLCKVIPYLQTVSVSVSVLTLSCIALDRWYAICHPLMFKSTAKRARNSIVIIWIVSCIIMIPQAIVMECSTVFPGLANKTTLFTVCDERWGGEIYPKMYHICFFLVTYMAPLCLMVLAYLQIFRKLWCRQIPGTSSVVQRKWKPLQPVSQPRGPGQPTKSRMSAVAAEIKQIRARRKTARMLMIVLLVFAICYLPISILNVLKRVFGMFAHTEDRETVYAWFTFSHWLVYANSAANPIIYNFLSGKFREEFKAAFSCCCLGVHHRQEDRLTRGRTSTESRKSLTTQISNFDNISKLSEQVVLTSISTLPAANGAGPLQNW
Type: cell-based
Method: T-Rex CHO cells stably overexpressing the human orexin-2 receptor (OX2R) were induced overnight with 1 μg/mL of doxycycline in a T225 flask. 24 hours post induction, cells were lifted with accutase and plated into a 384-well proxy plate at 30,000 cells/well. Cells were then treated with different test compounds in 1× stimulation buffer containing 10 mM Hepes, 1 mM CaCl2, 0.5 mM MgCl2, 4.2 mM KCl, 146 mM NaCl, 5.5 mM glucose, and 50 mM LiCl, pH 7.4, for 1 hr at 37 degrees C. Following incubation, the reaction was terminated by the addition of detection mix, which is composed of IP1-d2 and anti-IP1-cryptate diluted in lysis buffer as well as 1× stimulation buffer. The plates were allowed to incubate for 1 hour at room temperature and were then read in the EnVision® multimode plate reader, measuring inositol phosphate levels.
Cisbio IP1 is a cell-based functional assay quantifying the accumulation of inositol monophosphate (IP), a metabolite released as a result of orexin 2 receptor activation through the phospholipase C-Gq signaling pathway. This is a competitive immunoassay in which the IP1 produced by the cells upon receptor activation competes with the IP1 analog coupled to the d2 fluorophore (acceptor) for binding to an anti-IP1 monoclonal antibody labeled with Eu cryptate (donor). The measured HTRF-FRET based signal is inversely proportional to the IP1 concentration produced.
The EC50 values reported in Table 2 were obtained according to the human OX2R IP1 assay described above. Data are the mean EC50 values±S.E.M.

| SMILES | EC50 |
| --- | --- |
| Cn1ncc2cc([C@H]3CC[C@@H](OC[C@@H]4CN(C(=O)CN5CCOCC5)CC[C@@H]4NS(C)(=O)=O)CC3)ccc21 [Compound 45] | > 10 nM |
| Cn1ncc2ccc([C@H]3CC[C@H](OC[C@@H]4CN(c5ccccn5)CC[C@@H]4NS(C)(=O)=O)CC3)cc21 [Compound 65] | > 10 nM |
| Cn1cnc2ccc(C3CCC(OC[C@@H]4CN(c5ccccn5)CC[C@@H]4NS(C)(=O)=O)CC3)cc21 (stereo partly drawn) [Compound 63] | > 10 nM |
| Cn1ncc2cc([C@H]3CC[C@@H](OC[C@@H]4CN(C(=O)C5COC5)CC[C@@H]4NS(C)(=O)=O)CC3)ccc21 [Compound 47] | > 10 nM |
| CN(C)C(=O)N[C@H]1CCN(c2cccnn2)C[C@H]1CO[C@H]1CC[C@@H](c2ccc3c(cnn3C)c2)CC1 [Compound 58] | > 10 nM |
| Cn1ncc2ccc(C3CCC(OC[C@@H]4CN(c5ccccn5)CC[C@@H]4NS(C)(=O)=O)CC3)cc21 (stereo partly drawn) [Compound 66] | > 10 nM |
| Cn1ncc2cc([C@H]3CC[C@@H](OC[C@@H]4CN(C(=O)Cc5ccncn5)CC[C@@H]4NS(C)(=O)=O)CC3)ccc21 [Compound 52] | > 10 nM |
| Cn1ncc2cc([C@H]3CC[C@@H](OC[C@@H]4CN(C(=O)CO)CC[C@@H]4NS(C)(=O)=O)CC3)ccc21 [Compound 48] | > 10 nM |
| Cn1ncc2cc([C@H]3CC[C@@H](OC[C@@H]4CN(C(=O)[C@H]5CCOC5)CC[C@@H]4NS(C)(=O)=O)CC3)ccc21 [Compound 62] | > 10 nM |
| Cn1ncc2cc([C@H]3CC[C@@H](OC[C@@H]4CN(C(=O)C5CCOC5)CC[C@@H]4NS(C)(=O)=O)CC3)ccc21 (stereo partly drawn) [Compound 60] | > 10 nM |
| Cn1ncc2cc([C@H]3CC[C@@H](OC[C@@H]4CN(C(=O)[C@@H]5CCOC5)CC[C@@H]4NS(C)(=O)=O)CC3)ccc21 [Compound 17] | 1 to 10 nM |
| Cn1ncc2cc([C@H]3CC[C@@H](OC[C@@H]4CN(C(=O)Cc5ncccn5)CC[C@@H]4NS(C)(=O)=O)CC3)ccc21 [Compound 50] | > 10 nM |
| Cn1ncc2cc([C@H]3CC[C@@H](OC[C@@H]4CN(C(=O)CN5CCCCC5)CC[C@@H]4NS(C)(=O)=O)CC3)ccc21 [Compound 46] | > 10 nM |
| Cn1ncc2cc([C@H]3CC[C@@H](OC[C@@H]4CN(C(=O)C5CCO5)CC[C@@H]4NS(C)(=O)=O)CC3)ccc21 (stereo partly drawn) [Compound 53] | > 10 nM |
| COC(=O)N1CC[C@H](NS(C)(=O)=O)[C@H](CO[C@H]2CC[C@@H](c3ccc4[nH]ncc4c3)CC2)C1 [Compound 5] | 1 to 10 nM |
| Cn1ncc2cc([C@H]3CC[C@@H](OC[C@@H]4CN(C(=O)C(C)(C)C)CC[C@@H]4NS(C)(=O)=O)CC3)ccc21 [Compound 22] | 1 to 10 nM |
| Cn1cnc2ccc([C@H]3CC[C@@H](OC[C@@H]4CN(c5ccccn5)CC[C@@H]4NS(C)(=O)=O)CC3)cc21 [Compound 9] | 1 to 10 nM |
| Cn1cnc2ccc([C@H]3CC[C@H](OC[C@@H]4CN(c5ccccn5)CC[C@@H]4NS(C)(=O)=O)CC3)cc21 [Compound 64] | 1 to 10 nM |
| Cn1ncc2cc([C@H]3CC[C@@H](OC[C@@H]4CN(C(=O)[C@@]5(C)CCOC5)CC[C@@H]4NS(C)(=O)=O)CC3)ccc21 [Compound 28] | 1 to 10 nM |
| COC(=O)N1CC[C@H](NS(C)(=O)=O)[C@H](CO[C@H]2CC[C@@H](c3ccc4c(cnn4C)c3)CC2)C1 [Compound 12] | 1 to 10 nM |
| Cn1ncc2cc([C@H]3CC[C@@H](OC[C@@H]4CN(CC(=O)N5CCCCC5)CC[C@@H]4NS(C)(=O)=O)CC3)ccc21 [Compound 61] | > 10 nM |
| Cn1ncc2cc([C@H]3CC[C@@H](OC[C@@H]4CN(C(=O)C5CCOC5)CC[C@@H]4NS(=O)(=O)C(F)(F)F)CC3)ccc21 (stereo partly drawn) [Compound 33] | 1 to 10 nM |
| Cn1ncc2cc([C@H]3CC[C@@H](OC[C@@H]4CN(c5ccccn5)CC[C@@H]4NS(C)(=O)=O)CC3)ncc21 [Compound 7] | > 10 nM |
| Cn1ncc2cc([C@H]3CC[C@@H](OC[C@@H]4CN(C(=O)C5CC5)CC[C@@H]4NS(C)(=O)=O)CC3)ccc21 [Compound 18] | 1 to 10 nM |
| Cn1ccnc1CC(=O)N1CC[C@H](NS(C)(=O)=O)[C@H](CO[C@H]2CC[C@@H](c3ccc4c(cnn4C)c3)CC2)C1 [Compound 49] | > 10 nM |
| CC(=O)N1CC[C@H](NS(C)(=O)=O)[C@H](CO[C@H]2CC[C@@H](c3ccc4c(cnn4C)c3)CC2)C1 [Compound 20] | > 10 nM |
| Cn1ncc2cc([C@H]3CC[C@@H](OC[C@@H]4CN(C(=O)c5cncs5)CC[C@@H]4NS(C)(=O)=O)CC3)ccc21 [Compound 27] | 1 to 10 nM |
| Cn1ncc2cc([C@H]3CC[C@@H](OC[C@@H]4CN(C(=O)Cc5cnccn5)CC[C@@H]4NS(C)(=O)=O)CC3)ccc21 [Compound 51] | > 10 nM |

Continued, values first:

| EC50 | SMILES |
| --- | --- |
| 1 to 10 nM | Cn1cnc2ccc([C@H]3CC[C@@H](OC[C@@H]4CN(C(=O)C5(F)CCC5)CC[C@@H]4NS(C)(=O)=O)CC3)cc21 [Compound 19] |
| < 1 nM | CN(C)S(=O)(=O)N[C@H]1CCN(c2cccnn2)C[C@H]1CO[C@H]1CC[C@@H](c2ccc3c(cnn3C)c2)CC1 [Compound 30] |
| 1 to 10 nM | Cn1cnc2cc([C@H]3CC[C@@H](OC[C@@H]4CN(c5ccccn5)CC[C@@H]4NS(C)(=O)=O)CC3)ccc21 [Compound 8] |
| < 1 nM | Cn1cnc2cc([C@H]3CC[C@@H](OC[C@@H]4CN(C(=O)C5(F)CCC5)CC[C@@H]4NS(C)(=O)=O)CC3)ccc21 [Compound 16] |
| < 1 nM | Cn1ncc2cc([C@H]3CC[C@@H](OC[C@@H]4CN(C(=O)C5(F)CCC5)CC[C@@H]4NS(C)(=O)=O)CC3)ccc21 [Compound 11] |
| 1 to 10 nM | Cn1ncc2cc([C@H]3CC[C@@H](OC[C@@H]4CN(C(=O)N5CCC5)CC[C@@H]4NS(C)(=O)=O)CC3)ccc21 [Compound 23] |
| 1 to 10 nM | Cn1ncc2cc([C@H]3CC[C@@H](OC[C@@H]4CN(C(=O)C5CCOC5)CC[C@@H]4NS(C)(=O)=O)CC3)ccc21 (stereo partly drawn) [Compound 59] |
| < 1 nM | Cn1ncc2cc([C@H]3CC[C@@H](OC[C@@H]4CN(c5ccccn5)CC[C@@H]4NS(C)(=O)=O)CC3)ccc21 [Compound 3] |
| 1 to 10 nM | Cn1ncc2cc([C@H]3CC[C@@H](OC[C@@H]4CN(c5cnccn5)CC[C@@H]4NS(=O)(=O)C(F)(F)F)CC3)ccc21 [Compound 25] |
| 1 to 10 nM | Cn1ncc2cc([C@H]3CC[C@@H](OC[C@@H]4CN(c5cccnn5)CC[C@@H]4NS(=O)(=O)C(F)(F)F)CC3)cc(F)c21 [Compound 26] |
| 1 to 10 nM | Cn1ncc2cc([C@H]3CC[C@@H](OC[C@@H]4CN(C(=O)C(C)(C)O)CC[C@@H]4NS(C)(=O)=O)CC3)ccc21 [Compound 21] |
| 1 to 10 nM | Cn1ncc2cc([C@H]3CC[C@@H](OC[C@@H]4CN(c5cccnn5)CC[C@@H]4NS(C)(=O)=O)CC3)ccc21 [Compound 15] |
| 1 to 10 nM | O=S(=O)(N[C@H]1CCN(c2ccccn2)C[C@H]1CO[C@H]1CC[C@@H](c2ccc3[nH]ncc3c2)CC1)C(F)(F)F [Compound 2] |
| < 1 nM | CS(=O)(=O)N[C@H]1CCN(c2ccccn2)C[C@H]1CO[C@H]1CC[C@@H](c2ccc3[nH]ncc3c2)CC1 [Compound 1] |
| 1 to 10 nM | CS(=O)(=O)N[C@H]1CCN(C(=O)C2(F)CCC2)C[C@H]1CO[C@H]1CC[C@@H](c2ccc3[nH]ncc3c2)CC1 [Compound 4] |
| < 1 nM | CNS(=O)(=O)N[C@H]1CCN(c2cccnn2)C[C@H]1CO[C@H]1CC[C@@H](c2ccc3c(cnn3C)c2)CC1 [Compound 29] |
| 1 to 10 nM | CN(C)S(=O)(=O)N[C@H]1CCN(C(=O)[C@@H]2CCOC2)C[C@H]1CO[C@H]1CC[C@@H](c2ccc3c(cnn3C)c2)CC1 [Compound 31] |
| 1 to 10 nM | Cn1ncc2cc([C@H]3CC[C@@H](OC[C@@H]4CN(C(=O)C5(F)CCC5)CC[C@@H]4NS(=O)(=O)C(F)(F)F)CC3)ccc21 [Compound 14] |
| < 1 nM | Cn1ncc2cc([C@H]3CC[C@@H](OC[C@@H]4CN(c5ccccn5)CC[C@@H]4NS(=O)(=O)C(F)(F)F)CC3)ccc21 [Compound 10] |
| < 1 nM | Cn1ncc2cc([C@H]3CC[C@@H](OC[C@@H]4CN(c5cccnn5)CC[C@@H]4NS(=O)(=O)C(F)(F)F)CC3)ccc21 [Compound 13] |
